Data published in US10927125B2, “Substituted cinnolines as inhibitors of KRAS G12C” (Araxes Pharma LLC, priority 2013, dated 2021).

Biological target: T1, KRAS G12C 1-169, his-tagged protein, GDP-loaded (Homo sapiens, UniProt P01116, G12C)
T1 construct: KRAS G12C 1-169, his-tagged protein, GDP-loaded
Assay: Biochemical assay: covalent binding of compounds to KRAS G12C, analysed by mass spectrometry
Conditions: binding measured at 30 min (compounds 247-375)
Procedure: Compounds were tested for activity as follows:
Compounds were diluted to 50× final test concentration in DMSO in 96-well storage plates. […] Reactions were mixed carefully and thoroughly by pipetting up/down with a 200 μl multi-channel pipettor. The plate was sealed well with aluminum plate seal, and stored in drawer at room temperature for 30 min, 2 hour or 24 hrs. 51 μl of 2% formic acid (Fisher cat # A117) in DI H2O was then added to each well followed by mixing with a pipette. The plate was then resealed with aluminum seal and stored on dry ice until analyzed as described below.
The above described assays were analyzed by mass spectrometry according to the following procedure:
The MS instrument is set to positive polarity, 2 GHz resolution, and low mass (1700) mode and allowed to equilibrate for 30 minutes. The instrument is then calibrated, switched to acquisition mode and the appropriate method loaded.
After another 30 minute equilibration time, a blank batch (i.e., buffer) is run to ensure equipment is operating properly. The samples are thawed at 37° C. for 10 minutes, briefly centrifuged, and transfer to the bench top. Wells A1 and H12 are spiked with 1 uL 500 uM internal standard peptide, and the plates centrifuged at 2000×g for 5 minutes. The method is then run and masses of each individual well recorded.
The masses (for which integration data is desired) for each well are pasted into the platemap and exported from the analysis. Masses for the internal standards are exported as well. The data at 50 ppm is extracted for the +19 charge state, and identity of well A1 is assigned using the internal standard spike and integrated. Peak data is exported as a TOF list and the above steps are repeated individually, for the +20, 21, 22, 23, 24, and 25 charge states.

T1 sequence (P01116 1-169 isoform P01116-2 G12C): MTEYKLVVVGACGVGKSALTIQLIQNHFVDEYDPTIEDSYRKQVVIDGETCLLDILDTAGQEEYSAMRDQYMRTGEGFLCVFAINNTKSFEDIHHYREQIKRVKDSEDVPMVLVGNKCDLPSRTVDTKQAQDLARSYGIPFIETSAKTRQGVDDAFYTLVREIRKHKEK

Row | SMILES | Binding %
1 | C=CC(=O)N1CCN(c2nc(OCCN(C)C)nc3c(F)c(-c4cc(O)cc5ccccc45)c(Cl)cc23)CC1 [Compound 374, 1-(4-(6-chloro-2-(2-(dimethylamino)ethoxy)-8-fluoro-7-(3-hydroxynaphthalen-1-yl)quinazolin-4-yl)piperazin-1-yl)prop-2-en-1-one] | +++ (+++ indicates binding activity greater than 50% and up to 75%)
2 | C=CC(=O)N1CCN(c2nc(Oc3cnn(C)c3)nc3c(F)c(-c4c(C)ccc5[nH]ncc45)c(Cl)cc23)CC1 [Compound 375, 1-(4-(6-chloro-8-fluoro-7-(5-methyl-1H-indazol-4-yl)-2-(1-methyl-1H-pyrazol-4-yloxy)quinazolin-4-yl)piperazin-1-yl)prop-2-en-1-one] | +++ (+++ indicates binding activity greater than 50% and up to 75%)
